Here are results for 30 compounds from US11098010B2 (priority 2017, dated 2021).

This assay relates to HBV rcDNA in HepDE19 cells. The experiment in a line: HepDE19 assay with bDNA quantitation of HBV rcDNA. The class given is cell-based, hepatitis B virus (HBV).
[1] abbreviates: Hepatitis B virus, HepDE19, 168 h, read-out: DE-19 bDNA EC50 (μM), HepDE19 cells, inhibition of rcDNA formation, 7 day incubation, top concentration 25 μM.
Setting [2] is: Hepatitis B virus, HepDE19, 168 h, HepDE19 cells, inhibition of rcDNA formation, 7 day incubation, top concentration 25 μM, read-out: DE-19 bDNA EC50.
The mark [3] stands for this setting: HepDE19 cells, inhibition of rcDNA formation, 7 day incubation, top concentration 25 μM, read-out: DE-19 bDNA EC50.
[4] abbreviates: read-out: DE-19 bDNA EC50, HepDE19 cells, inhibition of rcDNA formation, 7 day incubation, top concentration 25 μM.

Molecules are shown by their SMILES. Where a name gives a salt, the structure may show the parent alone. Read-outs that look alike come from different tables or passages of the source.

As for `O=C(Nc1ccc(F)c(Cl)c1)c1ccc(F)c2c1CC[C@@H]2Nc1nccc(-c2ccccn2)n1` [Compound 50, (S)—N-(3-Chloro-4-fluorophenyl)-7-fluoro-1-((4-(pyridin-2-yl)pyrimidin-2-yl)amino)-2,3-dihydro-1H-indene-4-carboxamide], the EC50 under setting [1] came out at 1 µM.
With `O=C(N[C@@H]1c2cccc(C(=O)Nc3ccc(F)c(Cl)c3)c2C[C@H]1O)OCc1ccccn1` [Compound 51, O-Pyridin-2-ylmethyl, N-((1R,2R)-4-((3-chloro-4-fluorophenyl)carbamoyl)-2-hydroxy-2,3-dihydro-1H-inden-1-yl) carbamate], the EC50 under setting [2] stood at 0.87 µM.
As for `COC(=O)NC1c2cccc(C(=O)Nc3ccc(F)c(F)c3)c2CC1O` (stereo not drawn) [Compound 52, O-methyl, N-(4-((3,4-difluorophenyl)carbamoyl)-2-hydroxy-2,3-dihydro-1H-inden-1-yl) carbamate], the EC50 under setting [3] was 19 µM.
In the case of `CNC(=O)NC1c2cccc(C(=O)Nc3ccc(F)c(F)c3)c2CC1O` (stereo not drawn) [Compound 53, N-(3,4-difluorophenyl)-2-hydroxy-1-(3-methylureido)-2,3-dihydro-1H-indene-4-carboxamide], under setting [2], the EC50 is greater than 25 µM.
Regarding `CC(C)(C)OC(=O)N1CC(F)(F)CC1COC(=O)N[C@H]1CCc2c(C(=O)Nc3ccc(F)c(Cl)c3)ccc(F)c21` (stereo partly drawn) [Compound 54, tert-Butyl 2-(((((S)-4-((3-chloro-4-fluorophenyl)carbamoyl)-7-fluoro-2,3-dihydro-1H-inden-1-yl)carbamoyl)oxy)methyl)-4,4-difluoropyrrolidine-1-carboxylate], the EC50 under setting [1] amounted to 0.99 µM.
Consider `COC(=O)NC1CSc2c(C(=O)Nc3ccc(F)c(F)c3)ccc(F)c21` (stereo not drawn) [Compound 55, O-Methyl, N-(7-((3,4-difluorophenyl)carbamoyl)-4-fluoro-2,3-dihydrobenzo[b]thiophen-3-yl) carbamate], for which, under setting [4], the EC50 worked out at 1.2 µM.
With `O=C(N[C@H]1CCc2c(C(=O)Nc3ccc(F)c(Cl)c3)ccc(F)c21)OCC1CC(F)(F)CN1` (stereo partly drawn) [Compound 56, O-(4,4-Difluoropyrrolidin-2-yl)methyl, N—((S)-4-((3-chloro-4-fluorophenyl)carbamoyl)-7-fluoro-2,3-dihydro-1H-inden-1-yl) carbamate Hydrochloride], under setting [1], the EC50 worked out at 0.5 µM.
Consider `COC(=O)NC1CSc2c(C(=O)Nc3ccc(F)c(F)c3)ccc(F)c21` (stereo not drawn) [Compound 57, O-Methyl, N-(7-((3,4-difluorophenyl)carbamoyl)-4-fluoro-2,3-dihydrobenzo[b]thiophen-3-yl) carbamate], for which the EC50 under setting [4] is greater than 25 µM.
As to `COC(=O)NC1CSc2c(C(=O)Nc3ccc(F)c(Cl)c3)ccc(F)c21` (stereo not drawn) [Compound 58, O-Methyl, N-(7-((3-chloro-4-fluorophenyl)carbamoyl)-4-fluoro-2,3-dihydrobenzo[b]thiophen-3-yl) carbamate], the EC50 under setting [4] was 0.79 µM.
For the compound `COC(=O)NC1CSc2c(C(=O)Nc3ccc(F)c(Cl)c3)ccc(F)c21` (stereo not drawn) [Compound 59, O-Methyl, N-(7-((3-chloro-4-fluorophenyl)carbamoyl)-4-fluoro-2,3-dihydrobenzo[b]thiophen-3-yl) carbamate], under setting [4], the EC50 is 12 µM.
As to `O=C(N[C@@H]1c2cccc(C(=O)Nc3ccc(F)c(F)c3)c2C[C@H]1O)OCc1ccccn1` [Compound 60, O-pyridin-2-ylmethyl, N-((1R,2R)-4-((3,4-difluorophenyl)carbamoyl)-2-hydroxy-2,3-dihydro-1H-inden-1-yl) carbamate], under setting [3], the EC50 is greater than 25 µM.
With `CC(=O)N1CC(F)(F)CC1COC(=O)N[C@H]1CCc2c(C(=O)Nc3ccc(F)c(Cl)c3)ccc(F)c21` (stereo partly drawn) [Compound 61, O-(1-Acetyl-4,4-difluoropyrrolidin-2-yl)methyl, N—((S)-4-((3-chloro-4-fluorophenyl)carbamoyl)-7-fluoro-2,3-dihydro-1H-inden-1-yl) carbamate], under setting [1], the EC50 amounted to 0.4 µM.
Still for that read-out and setting: under `O=C(N[C@H]1CCc2c(C(=O)Nc3ccc(F)c(Cl)c3)ccc(F)c21)OCC1CCN(CC(F)(F)F)CC1` [Compound 62, O-(1-(2,2,2-Trifluoroethyl)piperidin-4-yl)methyl, N—(S)-(4-((3-chloro-4-fluorophenyl)carbamoyl)-7-fluoro-2,3-dihydro-1H-inden-1-yl) carbamate] stands 1.8 µM.
Take `O=C(NC1CSc2c(C(=O)Nc3ccc(F)c(F)c3)ccc(F)c21)OCc1ccccn1` (stereo not drawn) [Compound 63, O-Pyridin-2-ylmethyl, N-(7-((3,4-difluorophenyl)carbamoyl)-4-fluoro-2,3-dihydrobenzo[b]thiophen-3-yl) carbamate]: the EC50 under setting [3] is greater than 25 µM.
Turning to `O=C(NC1CSc2c(C(=O)Nc3ccc(F)c(F)c3)ccc(F)c21)OCc1ccccn1` (stereo not drawn) [Compound 64, O-Pyridin-2-ylmethyl, N-(7-((3,4-difluorophenyl)carbamoyl)-4-fluoro-2,3-dihydrobenzo[b]thiophen-3-yl) carbamate], the EC50 under setting [3] was found to be 0.84 µM.
On the same count and under the same terms, under `O=C(NC1CSc2c(C(=O)Nc3ccc(F)c(Cl)c3)ccc(F)c21)OCc1ccccn1` (stereo not drawn) [Compound 65, O-Pyridin-2-ylmethyl, N-(7-((3-chloro-4-fluorophenyl)carbamoyl)-4-fluoro-2,3-dihydrobenzo[b]thiophen-3-yl) carbamate] stands greater than 25 µM; under `O=C(NC1CSc2c(C(=O)Nc3ccc(F)c(Cl)c3)ccc(F)c21)OCc1ccccn1` (stereo not drawn) [Compound 66, O-Pyridin-2-ylmethyl, N-(7-((3-chloro-4-fluorophenyl)carbamoyl)-4-fluoro-2,3-dihydrobenzo[b]thiophen-3-yl) carbamate], 0.44 µM.
Take `O=C(N[C@H]1CCc2c(C(=O)Nc3ccc(F)c(Cl)c3)ccc(F)c21)OCc1cccc[n+]1[O-]` [Compound 67, (S)-2-((((4-((3-Chloro-4-fluorophenyl)carbamoyl)-7-fluoro-2,3-dihydro-1H-inden-1-yl)carbamoyl)oxy)methyl)pyridine 1-oxide]: the EC50 under setting [2] turned out to be 0.31 µM.
Take `C[C@H](OC(=O)N[C@H]1CCc2c(C(=O)Nc3ccc(F)c(Cl)c3)ccc(F)c21)c1ccccn1` [Compound 68, O—(S)-1-(Pyridin-2-yl)ethyl, N—((S)-4-((3-chloro-4-fluorophenyl)carbamoyl)-7-fluoro-2,3-dihydro-1H-inden-1-yl) carbamate]: the EC50 under setting [1] turned out to be 0.39 µM.
Still for that read-out and setting: under `O=C(N[C@H]1CCc2c(C(=O)Nc3ccc(F)c(Cl)c3)ccc(F)c21)OC[C@@H]1CCCN1` [Compound 69, O—(S)-Pyrrolidin-2-ylmethyl, N—((S)-4-((3-chloro-4-fluorophenyl)carbamoyl)-7-fluoro-2,3-dihydro-1H-inden-1-yl) carbamate Hydrochloride] stands 5.1 µM.
`O=C(N[C@H]1CCc2c(C(=O)Nc3ccc(F)c(Cl)c3)ccc(F)c21)OCCC(F)(F)F` [Compound 70, O-3,3,3-Trifluoropropyl, N—(S)-(4-((3-chloro-4-fluorophenyl)carbamoyl)-7-fluoro-2,3-dihydro-1H-inden-1-yl) carbamate]: the EC50 under setting [2] amounted to 0.29 µM.
Same read-out and setting: under `Cn1ccc(COC(=O)N[C@H]2CCc3c(C(=O)Nc4ccc(F)c(Cl)c4)ccc(F)c32)n1` [Compound 71, O-(1-Methyl-1H-pyrazol-3-yl)methyl, N—(S)-(4-((3-chloro-4-fluorophenyl)carbamoyl)-7-fluoro-2,3-dihydro-1H-inden-1-yl) carbamate] stands 0.06 µM; under `O=C1C[C@@H](OC(=O)N[C@H]2CCc3c(C(=O)Nc4ccc(F)c(Cl)c4)ccc(F)c32)CN1` [Compound 72, O—(R)-5-Oxopyrrolidin-3-yl, N—((S)-4-((3-chloro-4-fluorophenyl)carbamoyl)-7-fluoro-2,3-dihydro-1H-inden-1-yl) carbamate], 0.24 µM; under `Cc1cccc(COC(=O)N[C@H]2CCc3c(C(=O)Nc4ccc(F)c(Cl)c4)ccc(F)c32)n1` [Compound 73, O-(6-Methylpyridin-2-yl)methyl, N—(S)-(4-((3-chloro-4-fluorophenyl)carbamoyl)-7-fluoro-2,3-dihydro-1H-inden-1-yl) carbamate], 0.25 µM.
`O=C(NCc1ccccn1)O[C@H]1CCc2c(C(=O)Nc3ccc(F)c(Cl)c3)ccc(F)c21` [Compound 74, N—(S)-4-((3-Chloro-4-fluorophenyl)carbamoyl)-7-fluoro-2,3-dihydro-1H-inden-1-yl, O-(pyridin-2-ylmethyl) carbamate]: under setting [2], the EC50 came out at 1.6 µM.
Still for that read-out and setting: as for `COCC(=O)N[C@H]1CCc2c(C(=O)Nc3ccc(F)c(Cl)c3)ccc(F)c21` [Compound 75, (S)—N-(3-Chloro-4-fluorophenyl)-7-fluoro-1-(2-methoxyacetamido)-2,3-dihydro-1H-indene-4-carboxamide], the figure is 1.4 µM.
As to `O=C(N[C@H]1CCc2c(C(=O)Nc3ccc(F)c(Cl)c3)ccc(F)c21)OCCF` [Compound 76, O-2-Fluoroethyl, N—(S)-(4-((3-chloro-4-fluorophenyl)carbamoyl)-7-fluoro-2,3-dihydro-1H-inden-1-yl) carbamate], the EC50 under setting [3] is 0.11 µM.
Turning to `CC(=O)N[C@H]1CCc2c(C(=O)Nc3ccc(F)c(Cl)c3)ccc(F)c21` [Compound 77, (S)-1-Acetamido-N-(3-chloro-4-fluorophenyl)-7-fluoro-2,3-dihydro-1H-indene-4-carboxamide], under setting [2], the EC50 was 0.2 µM.
`O=C(N[C@H]1CCc2c(C(=O)Nc3ccc(F)c(Cl)c3)ccc(F)c21)OCc1cnccn1` [Compound 78, O-Pyrazin-2-ylmethyl, N—(S)-(4-((3-chloro-4-fluorophenyl)carbamoyl)-7-fluoro-2,3-dihydro-1H-inden-1-yl) carbamate]: the EC50 under setting [1] was determined as 0.09 µM.
On the same count and under the same terms, as for `O=C(N[C@H]1CCc2c(C(=O)Nc3ccc(F)c(Cl)c3)ccc(F)c21)OCc1ncccn1` [Compound 79, O-Pyrimidin-2-ylmethyl, N—(S)-(4-((3-chloro-4-fluorophenyl)carbamoyl)-7-fluoro-2,3-dihydro-1H-inden-1-yl) carbamate], the figure is 0.12 µM.
